Test results published in ChEMBL document CHEMBL3352697, “Molecular modeling studies of atorvastatin analogues as HMGR inhibitors using 3D-QSAR, molecular docking and molecular dynamics simulations” (Bioorg Med Chem Lett, 2014).

Molecular target: T1, 3-hydroxy-3-methylglutaryl-coenzyme A reductase (Homo sapiens, UniProt P04035)
T1 sequence (P04035 whole entry): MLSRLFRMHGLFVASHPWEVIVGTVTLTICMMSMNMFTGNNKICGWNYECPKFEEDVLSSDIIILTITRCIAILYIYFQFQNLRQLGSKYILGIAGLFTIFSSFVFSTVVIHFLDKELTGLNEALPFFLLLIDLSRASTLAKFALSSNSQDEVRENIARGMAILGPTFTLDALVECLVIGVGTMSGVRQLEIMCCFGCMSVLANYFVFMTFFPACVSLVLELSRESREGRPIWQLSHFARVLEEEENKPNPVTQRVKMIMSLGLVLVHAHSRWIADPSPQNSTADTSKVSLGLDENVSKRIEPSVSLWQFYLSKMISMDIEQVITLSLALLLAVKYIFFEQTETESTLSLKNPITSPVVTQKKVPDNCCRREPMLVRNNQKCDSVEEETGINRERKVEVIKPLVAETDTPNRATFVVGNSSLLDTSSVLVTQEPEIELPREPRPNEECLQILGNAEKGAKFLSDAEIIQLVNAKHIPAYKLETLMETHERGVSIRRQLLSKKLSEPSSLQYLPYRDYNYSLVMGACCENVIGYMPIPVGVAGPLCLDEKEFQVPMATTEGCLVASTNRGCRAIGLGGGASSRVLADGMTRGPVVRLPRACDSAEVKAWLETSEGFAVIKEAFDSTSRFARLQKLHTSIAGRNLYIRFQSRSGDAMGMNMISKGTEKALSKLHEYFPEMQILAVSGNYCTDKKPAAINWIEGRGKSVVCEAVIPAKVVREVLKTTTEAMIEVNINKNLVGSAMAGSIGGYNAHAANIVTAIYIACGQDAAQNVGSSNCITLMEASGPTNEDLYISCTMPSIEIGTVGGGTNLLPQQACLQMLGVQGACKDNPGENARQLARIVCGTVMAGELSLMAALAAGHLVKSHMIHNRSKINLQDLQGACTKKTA
Assay: Inhibition of HMG-CoA reductase (unknown origin)

IC50: 8.89 nM
SMILES: CC(C)n1c(/C=C/[C@@H](O)C(F)(F)[C@@H](O)CC(=O)O)c(-c2ccc(F)cc2)c2ccccc21
